What was measured:
[1] = biological target: yeast iso-1 cytochrome c WT* (pseudo-wild-type), ferric (Saccharomyces cerevisiae, UniProt P00044, C108S/K78A); assay: equilibrium titration, Soret absorbance at […] and […] nm, one-site fit; type: binding
[2] = biological target: yeast iso-1 cytochrome c WT* (pseudo-wild-type), ferric (Saccharomyces cerevisiae, UniProt P00044, C108S/K78A/K79A/K85G/M86K); assay: as above; type: binding
Lys80 = Lys80 (UniProt position 86, IPGTGKAFGGL); assay: UV-vis; details: ferric protein; Lys80/His18-ligated haem converting to H2O/His-ligated haem; cited from earlier work

yeast iso-1 cytochrome c WT* (pseudo-wild-type), ferric (Saccharomyces cerevisiae, UniProt P00044, C108S/K78A), sequence (P00044 2-109 K78A/C108S): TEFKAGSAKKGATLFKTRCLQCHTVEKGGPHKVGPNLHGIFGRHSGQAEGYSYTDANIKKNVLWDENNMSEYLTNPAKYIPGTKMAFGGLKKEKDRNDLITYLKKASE
yeast iso-1 cytochrome c WT* (pseudo-wild-type), ferric (Saccharomyces cerevisiae, UniProt P00044, C108S/K78A/K79A/K85G/M86K), sequence (P00044 2-109 K78A/K79A/K85G/M86K/C108S): as the sequence (P00044 2-109 K78A/C108S) above, with K78A, K84G, M85K counted along it

Compound	Kd [1] [µM]	Kd [2] [µM]	pKa (Lys80)
c1c[nH]cn1 [imidazole]	2780	2330	
iso-1 cytochrome c, M80K# (K73A/K79G/M80K in WT* background) (Saccharomyces cerevisiae; K72A;K73A;K79G;M80K;C102S)			4.9 ± 0.2
